Experiment [1] relates to cystic fibrosis G542X nonsense mutation. Description: Cell-free nonsense mutation suppression dose-response assay, firefly/renilla. The class given is biochemical, rabbit. The note with it: 0-50 μM, FIGS. 4-7. As to the method:
The plasmids were transcribed in vitro and translated using rabbit reticulocytes (TNT mix) and then tested for the expression levels of the firefly and renilla luciferases.
WT plasmids expressed both firefly and renilla luciferases while mutant plasmids expressed only the renilla luciferase due to the stop codon found in the inserted sequence. The readthrough assays were conducted for the tested compounds and the controls by adding the compounds to the in vitro transcription/translation reaction mixture. In case the compounds exerted suppression of the premature nonsense/stop codon mutation, the firefly luciferase was expressed and a fold-change in its expression was observed.
Readthrough activity of Cystic Fibrosis (CF) mutation G542X was tested using the compounds presented in Table 1, and the mutation suppression was calculated based on firefly/renilla expression ratio values, and normalized with respect to the expression level of the WT and the control sample (no tested compound).

Another experiment has as its system B. subtilis ATCC-6633. The experiment can be described thus: Antibacterial activity, MIC by double-microdilution. Type of experiment: cell-based. As for the experimental part:
(§1) Comparative antibacterial activities were determined in two representative strains of Gram-negative (E. coli R477-100) and Gram-positive (B. subtilis ATCC-6633) bacteria, by measuring the MIC values using the double-microdilution method according to the National Committee for Clinical Laboratory Standards (NCCLS) (NCCLS. National Committee for Clinical Laboratory Standards, Performance standards for antimicrobial susceptibility testing. Fifth information supplement: Approved Standard M100-S5; Villanova, Pa.: NCCLS, 1994.).
(§2) In all biological tests, all AGs were in their sulfate salt forms, and the concentrations refer to the free amine form of each AG. The eukaryotic and prokaryotic half-maximal-inhibition values (IC50^Euk and IC50^Pro) were quantified in coupled transcription/translation assays by using active luciferase detection as previously described. Minimal inhibitory concentration (MIC) values were determined by using the double-microdilution method.

Experiment [2] concerns nonsense constructs R3X and R245X (USH1), Q70X (HS), G542X (CF). The experiment can be described thus: Dual luciferase in vitro readthrough assay, p2Luc plasmids, TNT Reticulocyte Lysate. Type of experiment: biochemical. To be noted: R3X nonsense mutation construct (USH1), FIG. 10. An excerpt: DNA fragments derived from PCDH15, CFTR, and IDUA cDNAs, including the tested nonsense mutation or the corresponding wild type (wt) codon, and four to six upstream and downstream flanking codons were created by annealing the following pairs of complementary oligonucleotides:
Fragments were inserted in frame into the polylinker of the p2Luc plasmid between either BamHI and SacI (p.R3X and p.R245X) or SalI and SacI (all the rest) restriction sites. For the in vitro readthrough assays, the obtained plasmids, with addition of the tested aminoglycosides were transcribed and translated using the TNT Reticulocyte Lysate Quick Coupled Transcription/Translation System. Luciferase activity was determined after 90 minutes of incubation at 30° C., using the Dual Luciferase Reporter Assay System (Promega™).
Activity was tested using a collection of dual-luciferase reporter plasmids, containing different sequence contests around premature stop codons derived from the PCDH15, CFTR, and IDUA genes that underline USH1, CF, and MPS I-H, respectively. The exemplified nonsense reporters were R3X and R245X for USH1, G542X for CF, and Q70X for MPS I-H.

For the next experiment, the system named is E. coli R477-100. The experiment can be described thus: Antibacterial activity, MIC by double-microdilution. Type of experiment: cell-based. To be noted: for MIC: Escherichia coli, R477100, read-out: Antibacterial Activity MIC E. Coli R 477/100. As for the experimental part: as §1, §2
Where [3] appears, read: Bacillus subtilis, ATCC6633, Table 4, read-out: Antibacterial Activity MIC B. Subtilis ATCC6633.
Setting [4] is: Bacillus subtilis, ATCC6633, Table 6, read-out: Antibacterial activity MIC B. subtilis ATCC6633.

Where two headings read alike, the source gives them in different places.

On to `C[C@@H](O)C1O[C@H](O[C@@H]2C(N)C[C@@H](N)C(O)C2O[C@@H]2O[C@H](CNC(=N)N)C(O)C2O)C(N)C(O)[C@@H]1O` (stereo in doubt) [NB151], for which, in experiment [1], the “G542X mutation suppression (readthrough) activity, dose-response” value (shortened to “G542X mutation suppression”) was “notable dose-dependent readthrough activity”. Consider `C[C@@H](O)C1O[C@H](O[C@@H]2C(N)C[C@@H](NCc3ccccc3)C(O)C2O)C(N)C(O)[C@@H]1O` (stereo in doubt) [NB145], for which the “G542X mutation suppression” value in experiment [1] is given as “notable dose-dependent readthrough activity”. Turning to `CC(O)C1O[C@H](O[C@@H]2C(N)C[C@@H](N)C(O)C2O[C@@H]2O[C@H]([C@H](C)N)C(O)C2O)C(N)C(O)[C@@H]1O` (single isomer, unassigned) [NB124, reference compound], in the experiment with B. subtilis ATCC-6633 (setting [3]), the MIC worked out at 156 µM. On to `CC(C)CN[C@@H]1CC(N)[C@@H](O[C@H]2OC([C@@H](C)O)[C@@H](O)C(O)C2N)C(O)C1O` (stereo in doubt) [NB144], for which the “G542X mutation suppression” value in experiment [1] is recorded as “notable dose-dependent readthrough activity”.

For `N[C@H]1[C@@H](O[C@H]2[C@H](O)[C@@H](O)[C@H](N)C[C@@H]2N)O[C@H]([C@H](O)CO)[C@@H](O)[C@@H]1O` [NB153, (2R, 3S, 4R, 5R, 6S)-5-amino-6-(((1R, 2R, 3S, 4R, 6S)-4,6-diamino-2,3-dihydroxycyclohexyl)oxy)-2-((R)-1,2-dihydroxyethyl)tetrahydro-2H-pyran-3,4-diol], the “in vitro stop codon suppression (readthrough) activity compared with Compound 1” value in experiment [2] is listed as “dramatically increases its in vitro readthrough activity”. For the same compound, the figures for the MIC in the experiment on E. coli R477-100 and in the experiment on B. subtilis ATCC-6633 (setting [3]) were greater than 311 µM and 311 µM, respectively. As for `C[C@@H](O)C1O[C@H](O[C@@H]2C(N)C[C@@H](NC(=N)N)C(O)[C@H]2O)C(N)C(O)[C@@H]1O` (stereo in doubt) [NB150], in experiment [1], the “G542X mutation suppression” value is given as “notable dose-dependent readthrough activity”. `C[C@H](N)[C@H]1O[C@@H](OC2C(O)[C@H](N)CC(N)[C@H]2O[C@H]2OC(CO)[C@@H](O)C(O)C2N)C(O)C1O` (some centres unmarked) [NB118, reference compound]: the MIC is 2660 µg/mL in the experiment on E. coli R477-100 and 83 µg/mL with B. subtilis ATCC-6633 (setting [4]). As to gentamicin [reference compound], the “Antibacterial Activity MIC E. Coli R 477/100” value in the experiment with E. coli R477-100 (Table 4) is 6 µM. Also, the MIC in the experiment with B. subtilis ATCC-6633 (Table 4, read-out: Antibacterial Activity MIC B. Subtilis ATCC6633) is listed as less than 0.75 µM. Take `NC[C@H]1O[C@@H](OC2C(O)[C@H](N)CC(N)[C@H]2O[C@H]2OC(CO)[C@@H](O)C(O)C2N)C(O)C1O` (some centres unmarked) [NB30, reference compound]: the values for the MIC in the experiment with E. coli R477-100 and with B. subtilis ATCC-6633 (setting [4]) were 790 µg/mL and 100 µg/mL, respectively. Consider `N[C@H]1[C@@H](O[C@H]2[C@H](O)[C@@H](O)[C@H](N)C[C@@H]2N)O[C@H]([C@@H](O)CO)[C@@H](O)[C@@H]1O` [NB155, (2R, 3S, 4R, 5R, 6S)-5-amino-6-(((1R, 2R, 3S, 4R, 6S)-4,6-diamino-2,3-dihydroxycyclohexyl)oxy)-2-((S)-1,2-dihydroxyethyl)tetrahydro-2H-pyran-3,4-diol], for which, in experiment [2], the “in vitro stop codon suppression (readthrough) activity compared with Compound 1” value is given as “somewhat higher activity of NB155 to that of Compound 1”. The MIC in the experiment with E. coli R477-100 and with B. subtilis ATCC-6633 (setting [3]) was greater than 375 µM throughout.

The record behind these values is patent publication US10899785B2, “Aminoglycoside derivatives and uses thereof in treating genetic disorders” (Eloxx Pharmaceuticals Ltd., priority 2015, dated 2021).
